Experimental findings from patent US20250049798A1, “WEE1 PROTEIN KINASE DEGRADATION AGENT AND USE THEREOF” (HANGZHOU GLUBIO PHARMACEUTICAL CO. LTD., priority 2021, published 2025) are described below.

Read-outs that look alike come from different tables or passages of the source.

The assay deals with HiBiT tagged Wee1 (Homo sapiens, UniProt P30291). Kind of assay: Wee1 protein degradation assay (HiBiT assay). The class given is cell-based. On the technique in general: The HiBiT peptide binds its large partner to form an active luciferase.
Sequence of HiBiT tagged Wee1 (P30291 whole entry): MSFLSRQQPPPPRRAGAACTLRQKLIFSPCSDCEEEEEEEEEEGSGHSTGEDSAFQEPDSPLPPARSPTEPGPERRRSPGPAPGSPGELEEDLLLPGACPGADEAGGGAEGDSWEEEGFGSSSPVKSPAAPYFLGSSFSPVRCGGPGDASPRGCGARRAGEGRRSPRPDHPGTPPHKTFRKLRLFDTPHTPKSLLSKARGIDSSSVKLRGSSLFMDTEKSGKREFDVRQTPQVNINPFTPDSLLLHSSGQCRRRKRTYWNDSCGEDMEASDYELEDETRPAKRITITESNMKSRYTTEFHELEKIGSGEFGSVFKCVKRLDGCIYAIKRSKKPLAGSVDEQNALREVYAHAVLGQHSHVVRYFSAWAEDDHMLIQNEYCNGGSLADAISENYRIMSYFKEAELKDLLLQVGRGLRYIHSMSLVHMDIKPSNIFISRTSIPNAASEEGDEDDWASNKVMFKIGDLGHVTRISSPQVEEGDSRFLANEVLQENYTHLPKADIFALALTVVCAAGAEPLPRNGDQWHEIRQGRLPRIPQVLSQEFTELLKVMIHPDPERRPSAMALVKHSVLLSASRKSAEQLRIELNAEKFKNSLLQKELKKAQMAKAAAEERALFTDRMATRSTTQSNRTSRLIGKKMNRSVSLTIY
[1] abbreviates: engineered HT-1080 cells, 20 hours.
Setting [2] is: engineered HT-1080 cells, 20 hours, maximum percentage of Wee1 degradation, read-out: HiBiT Wee1: Dmax.

As usually defined, the DC50 is the concentration at which degradation of the target reaches its halfway point. A higher DC50 goes with degradation only at high concentration. As a reminder, the Dmax is the largest share of the target that was removed. Consider `C=CCn1c(=O)c2cnc(Nc3ccc(N4CCN(CC5CCN(c6cccc7c(N8CCC(=O)NC8=O)nn(C)c67)CC5)CC4)cc3)nc2n1-c1cccc(C(C)(C)O)n1` [Compound 143], for which, under setting [1], the DC50 was below 100 nM. The Dmax under setting [2] fell in the range of 50 to 75%.

Compound `C=CCn1c(=O)c2cnc(Nc3ccc(C4CCN(C5CN(c6ccc(NC7CCC(=O)NC7=O)cc6F)C5)CC4)cc3)nc2n1-c1cccc(C(C)(C)O)n1` (stereo not shown) [Compound 148] came in with a DC50 under setting [1] below 100 nM. Moreover, under setting [2], the Dmax was above 75%.

On to `C=CCn1c(=O)c2cnc(Nc3ccc(N4CCC(CN5CCN(c6ccc(NC7CCC(=O)NC7=O)cc6Cl)CC5)CC4)cc3)nc2n1-c1cccc(C(C)(C)O)n1` (stereo not shown) [Compound 147], for which the DC50 under setting [1] was below 100 nM. The Dmax under setting [2] is above 75%.

Take `C=CCn1c(=O)c2cnc(Nc3ccc(N4CCN(CC5CCN(c6ccc7c(N8CCC(=O)NC8=O)nn(C)c7c6)CC5)CC4)c(C)c3)nc2n1-c1ccc2c(n1)[C@@](C)(O)CC2` [Compound 138]: under setting [1], the DC50 is below 100 nM. For the same compound, the Dmax under setting [2] lay in the range of 50 to 75%.

In the case of `C=CCn1c(=O)c2cnc(Nc3ccc(N4CCN(CC5CCN(c6ccc(NC7CCC(=O)NC7=O)cc6F)CC5)CC4)cc3)nc2n1-c1ccc2c(n1)[C@@](C)(O)CCC2` (single isomer, unassigned) [Compound 191], the DC50 under setting [1] was below 100 nM. The Dmax under setting [2] is above 75%.

Under setting [1], `O=C1CCC(N2C(=O)c3ccc(N4CCC(CCN5CCN(c6ccc(Nc7ncc8c(=O)n(-c9c(Cl)cccc9Cl)c9nccn9c8n7)cc6)CC5)CC4)cc3C2=O)C(=O)N1` (stereo not shown) [Compound 4] displayed a DC50 above 1000 nM. Besides, under setting [2], the Dmax is below 50%.

The compound `C=CCn1c(=O)c2cnc(Nc3ccc(N4CCN(CC5CCN(c6ccc7c(c6)CN(C6CCC(=O)NC6=O)C7=O)CC5)CC4)cc3)nc2n1-c1cccc(C(C)(C)O)n1` (stereo not shown) [Compound 25] showed a DC50 under setting [1] below 100 nM. Besides, under setting [2], the Dmax was in the range of 50 to 75%.

Turning to `C=CCn1c(=O)c2cnc(Nc3ccc(C4CCN(C5CN(c6ccc7c(c6)C(=O)N(C6CCC(=O)NC6=O)C7=O)C5)CC4)cc3)nc2n1-c1cccc(C(C)(C)O)n1` (stereo not shown) [Compound 43], under setting [1], the DC50 was below 100 nM. Further, the maximal degradation (Dmax) under setting [2] was above 75%.

Consider `C=CCn1c(=O)c2cnc(Nc3ccc(N4CCN(CC5CCN(c6ccc(NC7CCC(=O)NC7=O)cn6)CC5)CC4)cc3)nc2n1-c1ccc2c(n1)[C@@](O)(CC)CC2` (stereo partly shown) [Compound 136], for which the DC50 under setting [1] is below 100 nM. For the same compound, the Dmax under setting [2] is above 75%.

Under setting [1], `C=CCn1c(=O)c2cnc(Nc3ccc(N4CCN(C5CCN(c6ccc(NC7CCC(=O)NC7=O)cc6F)CC5)CC4)cc3)nc2n1-c1ccc2c(n1)[C@@](O)(CC)CC2` (stereo partly shown) [Compound 155] yielded a DC50 below 100 nM. The Dmax under setting [2] is above 75%.

With `C=CCn1c(=O)c2cnc(Nc3ccc4c(c3)CN(CCCCNc3ccc5c(c3)C(=O)N(C3CCC(=O)NC3=O)C5=O)CC4)nc2n1-c1cccc(C(C)(C)O)n1` (stereo not shown) [Compound 24], for the setting “HT-1080, read-out: HiBiT Wee1: Dmax”, the Dmax was below 50%. The compound also registered a DC50 under setting [1] above 1000 nM.

For `C=CCn1c(=O)c2cnc(Nc3ccc(N4CCC(N5CCN(c6cc7c(cc6F)C(=O)N(C6CCC(=O)NC6=O)C7=O)CC5)CC4)cc3)nc2n1-c1cccc(C(C)(C)O)n1` (stereo not shown) [Compound 78], under setting [1], the DC50 lay within 100 to 1000 nM. Besides, under setting [2], the Dmax lay in the range of 50 to 75%.

In turn, `O=C1CCC(N2C(=O)c3ccc(N4CCC(CN5CCc6ccc(Nc7ncc8c(=O)n(-c9c(Cl)cccc9Cl)c9nccn9c8n7)cc6C5)CC4)cc3C2=O)C(=O)N1` (stereo not shown) [Compound 5] came in with a DC50 under setting [1] above 1000 nM. Moreover, the Dmax under setting [2] is below 50%.

In the case of `C=CCn1c(=O)c2cnc(Nc3ccc(N4CCC(N5CCN(c6cccc7c6n(C)c(=O)n7C6CCC(=O)NC6=O)CC5)CC4)cc3)nc2n1-c1cccc(C(C)(C)O)n1` (stereo not shown) [Compound 68], under setting [1], the half-maximal degradation concentration (DC50) was below 100 nM. Also, the Dmax under setting [2] was in the range of 50 to 75%.

Take `C=CCn1c(=O)c2cnc(Nc3ccc(C4CCN(C5CCN(c6ccc7c(c6)C(=O)N(C6CCC(=O)NC6=O)C7=O)C5)CC4)cc3)nc2n1-c1cccc(C(C)(C)O)n1` (stereo not shown) [Compound 39]: the DC50 under setting [1] was 100 to 1000 nM. Further, under setting [2], the Dmax was in the range of 50 to 75%.

Consider `C=CCn1c(=O)c2cnc(Nc3ccc(N4CCN(CC5CCN(c6ccc(NC7CCC(=O)NC7=O)cc6F)CC5)CC4)c(C)c3)nc2n1-c1ccc2c(n1)[C@@](C)(O)CC2` (stereo partly shown) [Compound 131], for which, under setting [1], the DC50 was below 100 nM. For the same compound, the Dmax under setting [2] was above 75%.

Compound `C=CCn1c(=O)c2cnc(Nc3ccc(C4CCN(C5CCN(c6cc7c(cc6F)C(=O)N(C6CCC(=O)NC6=O)C7=O)CC5)CC4)cc3)nc2n1-c1cccc(C(C)(C)O)n1` (stereo not shown) [Compound 44] yielded a DC50 under setting [1] below 100 nM. Besides, under setting [2], the Dmax lay in the range of 50 to 75%.

Under setting [1], `C=CCn1c(=O)c2cnc(Nc3ccc(N4CCC(CN5CCN(c6ccc(NC7CCC(=O)NC7=O)cc6F)CC5)CC4)cc3)nc2n1-c1ccc2c(n1)[C@](C)(O)CC2` (single isomer, unassigned) [Compound 120] gave a DC50 below 100 nM. Under setting [2], the Dmax was 50 to 75%.

Under setting [1], `C=CCn1c(=O)c2cnc(Nc3ccc(N4CCN(C5CCN(c6ccc7c(c6)C(=O)N(C6CCC(=O)NC6=O)C7=O)CC5)CC4)cc3)nc2n1-c1cccc(C(C)(C)O)n1` (stereo not shown) [Compound 40] gave a DC50 below 100 nM. Moreover, under setting [2], the Dmax lay in the range of 50 to 75%.

For `C=CCn1c(=O)c2cnc(Nc3ccc(N4CCN(CCCOc5ccc6c(c5)C(=O)N(C5CCC(=O)NC5=O)C6=O)CC4)cc3)nc2n1-c1cccc(C(C)(C)O)n1` (stereo not shown) [Compound 62], the DC50 under setting [1] was below 100 nM. Further, the Dmax under setting [2] is above 75%.

Under setting [1], `C=CCn1c(=O)c2cnc(Nc3ccc(N4CCN(CC5CN(c6ccc7c(c6)C(=O)N(C6CCC(=O)NC6=O)C7=O)C5)CC4)c(C)c3)nc2n1-c1cccc(C(C)(C)O)n1` (stereo not shown) [Compound 12] came in with a DC50 below 100 nM. Also, under setting [2], the Dmax fell in the range of 50 to 75%.

The compound `C=CCn1c(=O)c2cnc(Nc3ccc(N4CCN(CCOc5ccc6c(c5)C(=O)N(C5CCC(=O)NC5=O)C6=O)CC4)cc3)nc2n1-c1cccc(C(C)(C)O)n1` (stereo not shown) [Compound 63] had a DC50 under setting [1] below 100 nM. In addition, the Dmax under setting [2] lay in the range of 50 to 75%.

As for `C=CCn1c(=O)c2cnc(Nc3ccc(C4CCN(C5CCN(c6ccc7c(c6)C(=O)N(C6CCC(=O)NC6=O)C7=O)CC5)CC4)cc3)nc2n1-c1ccc2c(n1)[C@@](O)(CC)CC2` (stereo partly shown) [Compound 75], under setting [1], the DC50 was below 100 nM. Besides, the Dmax under setting [2] was 50 to 75%.

As to `C=CCn1c(=O)c2cnc(Nc3ccc(N4CCN(C[C@@H]5CCN(c6ccc(NC7CCC(=O)NC7=O)cc6F)C5)CC4)cc3)nc2n1-c1cccc(C(C)(C)O)n1` (stereo partly shown) [Compound 139], the DC50 under setting [1] was below 100 nM. In addition, the Dmax under setting [2] is above 75%.

With `C=CCn1c(=O)c2cnc(Nc3ccc(C4CCN(CC5CCN(c6ccc(N7CCC(=O)NC7=O)cc6)CC5)CC4)cc3)nc2n1-c1cccc(C(C)(C)O)n1` [Compound 146], under setting [1], the DC50 is above 1000 nM. The maximal degradation (Dmax) under setting [2] is below 50%.

Take `C[C@@]1(O)CC/C=C\Cn2c(=O)c3cnc(Nc4ccc(N5CCN(CC6CCN(c7ccc(NC8CCC(=O)NC8=O)cc7F)CC6)CC5)cc4)nc3n2-c2cccc1n2` (single isomer, unassigned) [Compound 142]: the DC50 under setting [1] is below 100 nM. Besides, the Dmax under setting [2] fell in the range of 50 to 75%.

Compound `C=CCn1c(=O)c2cnc(Nc3ccc(C4CCN(C[C@H]5CCN(c6ccc7c(c6)C(=O)N(C6CCC(=O)NC6=O)C7=O)C5)CC4)cc3)nc2n1-c1cccc(C(C)(C)O)n1` (stereo partly shown) [Compound 36] yielded a half-maximal degradation concentration (DC50) under setting [1] below 100 nM. The Dmax under setting [2] is 50 to 75%.

On to `C=CCn1c(=O)c2cnc(Nc3ccc(N4CCC(N(C)C5CCN(c6cccc7c6n(C)c(=O)n7C6CCC(=O)NC6=O)CC5)CC4)cc3)nc2n1-c1cccc(C(C)(C)O)n1` (stereo not shown) [Compound 98], for which the DC50 under setting [1] was below 100 nM. Moreover, under setting [2], the Dmax was 50 to 75%.

`C=CCn1c(=O)c2cnc(Nc3ccc(N4CCN(C[C@@H]5CCN(c6ccc7c(c6)C(=O)N(C6CCC(=O)NC6=O)C7=O)C5)CC4)cc3)nc2n1-c1cccc(C(C)(C)O)n1` (stereo partly shown) [Compound 38] showed a DC50 under setting [1] below 100 nM. Further, the Dmax under setting [2] fell in the range of 50 to 75%.

Regarding `C=CCn1c(=O)c2cnc(Nc3ccc(N4CCC(CN5CCN(c6ccc7c(N8CCC(=O)NC8=O)nn(C)c7c6)CC5)CC4)cc3)nc2n1-c1ccc2c(n1)[C@](C)(O)CC2` [Compound 127], the DC50 under setting [1] is below 100 nM. Under setting [2], the Dmax is above 75%.

Compound `C=CCn1c(=O)c2cnc(Nc3ccc(N4CCN(CC5CCN(c6ccc(NC7CCC(=O)NC7=O)cc6F)CC5)CC4)cc3)nc2n1-c1cccc(C(C)(C)C)n1` (stereo not shown) [Compound 204] gave a DC50 under setting [1] below 100 nM. The Dmax under setting [2] was above 75%.

Take `C=CCn1c(=O)c2cnc(Nc3ccc(N4CCN(CC5CCN(Cc6cccc7c6n(C)c(=O)n7C6CCC(=O)NC6=O)CC5)CC4)cc3)nc2n1-c1cccc(C(C)(C)O)n1` (stereo not shown) [Compound 64]: the DC50 under setting [1] is below 100 nM. Also, under setting [2], the Dmax was in the range of 50 to 75%.

In turn, `O=C1CCC(N2C(=O)c3ccc(N4CC(N5CCC(c6ccc(Nc7ncc8c(=O)n(-c9c(Cl)cccc9Cl)c9nccn9c8n7)cc6)CC5)C4)cc3C2=O)C(=O)N1` (stereo not shown) [Compound 42] came in with a half-maximal degradation concentration (DC50) under setting [1] above 1000 nM. Moreover, the Dmax under setting [2] lay in the range of 50 to 75%.

As for `C=CCn1c(=O)c2cnc(Nc3ccc(N4CCC(CN5CCN(c6ccc(OC7CCC(=O)NC7=O)cc6F)CC5)CC4)cc3)nc2n1-c1cccc(C(C)(C)O)n1` (stereo not shown) [Compound 149], the DC50 under setting [1] is below 100 nM. For the same compound, under setting [2], the Dmax was above 75%.

Take `Cc1cc(Nc2ncc3c(n2)N(C)CN(c2c(Cl)cccc2Cl)C3=O)ccc1N1CCC(CN2CC3(C2)CN(c2ccc4c(c2)C(=O)N(C2CCC(=O)NC2=O)C4=O)C3)CC1` (stereo not shown) [Compound 32]: the DC50 under setting [1] was in the range of 100 to 1000 nM. The Dmax under setting [2] lay within 50 to 75%.

As to `C=CCn1c(=O)c2cnc(Nc3ccc(N4CCN(CC5CCN(c6ncc(NC7CCC(=O)NC7=O)cc6F)CC5)CC4)nc3)nc2n1-c1ccc2c(n1)[C@@](O)(CC)CC2` (stereo partly shown) [Compound 195], the DC50 under setting [1] was below 100 nM. For the same compound, the Dmax under setting [2] is above 75%.

In turn, `C=CCn1c(=O)c2cnc(Nc3ccc(N4CCN(CC5CCN(c6ccc(NC7CCC(=O)NC7=O)nc6)CC5)CC4)cc3)nc2n1-c1ccc2c(n1)[C@@](O)(CC)CC2` (stereo partly shown) [Compound 203] had a DC50 under setting [1] below 100 nM. Moreover, the Dmax under setting [2] was in the range of 50 to 75%.

For `C=CCn1c(=O)c2cnc(Nc3ccc(N4CCC(CN5CCC(c6ccc7c(N8CCC(=O)NC8=O)nn(C)c7c6)C(F)(F)C5)CC4)cc3)nc2n1-c1ccc2c(n1)[C@@](O)(CC)CC2` (stereo partly shown) [Compound 160], the DC50 under setting [1] was below 100 nM. In addition, the Dmax under setting [2] was in the range of 50 to 75%.
